Experimental data as given in patent US10092620B2, “Uses of cyclic peptides for treating and preventing atherosclerosis” (THE SCRIPPS RESEARCH INSTITUTE, priority 2013, dated 2018).
Non-standard residues stand in square brackets, D forms with d. Residues, ends and D or L forms follow the SMILES beside them.

Test system: LDLr-null mice
Assay: evaluation of atherosclerosis: whole aorta lesion area and aortic sinus lesion volume
Format: in vivo, mouse
Conditions: 10 weeks
Text: In vivo efficacy study: LDL receptor-null (LDLr^−/−) mice on a C57BL/6J background were initially purchased from Jackson Laboratories (Bar Harbor, Me.) and were bred in house. The mice were weaned at 4 weeks of age and were fed ad libitum a standard chow diet (Harlan Teklad 7019) until they were 10-weeks old, when they were switched to a high-fat Western diet (WD) containing 15.8% (wt/wt) fat, 1.25% (wt/wt) cholesterol, and no cholate (Harlan Teklad 94059). At the time that the WD was started, the test cyclic peptide was added to the drinking water at a high dose of 180 μM (200 μg/mL) or a low dose of 18 μM (20 μg/mL) and the mice (female, n=8 per dosing group) were continued on WD for 10 weeks. The lyophilized peptide was easily dissolved in PBS (pH 7.4) containing 1% sucrose, resulting in a clear solution. The drinking water solution was replaced with fresh solution every day. A control group of eight mice (female, n=8) were fed WD with vehicle (PBS with 1% sucrose) drinking water. The mice consumed approximately 2.5 mL of water per day per mouse, and there was no significant difference in water or food consumption between groups.
Evaluation of atherosclerosis: Atherosclerotic lesion severity was assessed in the aortae as previously described in Mullick et al., J. Clin. Invest. 115, 3149-3156, 2005. Briefly, at euthanasia, animals were perfused with PBS, followed by 4% formaldehyde (10% UltraPure EM Grade from Polysciences diluted in PBS, pH 7.2). For en face analysis, the entire mouse aorta was dissected from the proximal ascending aorta to the bifurcation of the iliac artery by using a dissecting microscope. Adventitial fat was removed, and the aorta was opened longitudinally, pinned flat onto black dissecting wax, stained with Sudan IV, and photographed at a fixed magnification. The photographs were digitized, and total aortic areas and lesion areas were calculated by using Adobe Photoshop version CS4, Chromatica V, and NIH Scion Image software (http://rsb.info.nih.gov/nih-image/Default.html). The results were reported as a percentage of the total aortic area that contained lesions.
As a second assessment of atherosclerosis, lesions of the aortic root (heart sinus) were analyzed. Utilizing stereological principles, lesion volume was estimated across a fixed distance of the aortic sinus. […] Lesion areas found only within the valve cusp were measured. […] Lesion volume was calculated from an integration of the measured cross-sectional areas. […]
Other than their in vivo cholesterol reducing activities, several peptides were also examined for ability to inhibit development of atherosclerotic legions in vivo. […] All charts in the figure are shown as a scatter plot along with mean±SD. p values were determined by the one-way ANOVA test with a post hoc Tukey-Kramer test.

[1] = oral ~25 mg/kg/day, LDLr-null mice, high-fat diet, vs control

`CC(C)C[C@@H]1NC(=O)[C@@H](Cc2c[nH]c3ccccc23)NC(=O)[C@H](CCCNC(=N)N)NC(=O)[C@@H](CCC(=O)O)NC(=O)[C@H](CCC(N)=O)NC(=O)[C@@H](CCC(=O)O)NC(=O)[C@H](CCCNC(=N)N)NC(=O)[C@@H](Cc2c[nH]c3ccccc23)NC1=O` [SEQ ID NO:1, c[wLwReQeR]] (cyclo([dW]L[dW]R[dE]Q[dE]R)) was tested, and the “atherosclerotic lesions vs control (in words)” value (10-fold lower dose in drinking water) was “no significant differences”, the “reduction in aortic sinus lesion volume” value [1] was 50% and the “reduction in whole aorta lesion area” value [1] was 26%.
